Laboratory results: ChEMBL document CHEMBL1201862, “PubChem BioAssay data set” (2004)
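Compound exposure: 48 hours, 5 concentrations, 96-well plates. At the GI50, growth is halved.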 Activity calls are given as the source filed them. Cut-off read from the data, not from the text of the source: active = GI50 up to about 1.1 µM and inactive = higher.

Experiments:
Experiment in all cases: inhibition of tumour cell growth, NCI panel, 48 h
A498 = system: A498
A549 = system: A549
BT-549 = system: BT-549
CCRF-CEM = system: CCRF-CEM
COLO 205 = system: COLO 205
DU-145 = system: DU-145
HCC 2998 = system: HCC 2998
HCT-116 = system: HCT-116
KM12 = system: KM12
MCF7 = system: MCF7
MDA-MB-231 = system: MDA-MB-231
NCI-H23 = system: NCI-H23
OVCAR-5 = system: OVCAR-5
PC-3 = system: PC-3
SNB-19 = system: SNB-19
SR = system: SR
T47D = system: T47D
UACC-257 = system: UACC-257

Measured: GI50

CCOC(=O)C(SCCO)C(C(=O)OCC)n1ccc(N)nc1=O (stereo not drawn)
inactive: A498 > 100 µM | A549 > 100 µM | BT-549 > 100 µM | CCRF-CEM > 100 µM | COLO 205 > 100 µM | DU-145 > 100 µM | HCC 2998 > 100 µM | HCT-116 > 100 µM | KM12 > 100 µM | MCF7 > 100 µM | MDA-MB-231 > 100 µM | NCI-H23 > 100 µM | OVCAR-5 > 100 µM | PC-3 > 100 µM | SNB-19 > 100 µM | SR > 100 µM | T47D > 100 µM | UACC-257 > 100 µM

Oc1cccc2ccc(Br)nc12
inactive: A498 > 100 µM | A549 > 100 µM | BT-549 > 100 µM | CCRF-CEM 46.6 µM | COLO 205 > 100 µM | DU-145 > 100 µM | HCC 2998 63 µM | HCT-116 > 100 µM | KM12 > 100 µM | MCF7 > 100 µM | MDA-MB-231 > 100 µM | NCI-H23 > 100 µM | OVCAR-5 > 100 µM | PC-3 86.5 µM | SNB-19 > 100 µM | SR 62.4 µM | T47D 51.6 µM | UACC-257 > 100 µM

CCCOC(=O)C1C2CCC(O2)C1C(=O)O (stereo not drawn)
inactive: A498 > 100 µM | A549 > 100 µM | BT-549 > 100 µM | CCRF-CEM > 100 µM | COLO 205 > 100 µM | DU-145 > 100 µM | HCT-116 > 100 µM | KM12 > 100 µM | MCF7 > 100 µM | MDA-MB-231 > 100 µM | NCI-H23 > 100 µM | OVCAR-5 > 100 µM | PC-3 > 100 µM | SNB-19 > 100 µM | SR > 100 µM | T47D > 100 µM | UACC-257 > 100 µM

CNc1ccc(Cl)cc1C(=O)N1CCC[C@H]1CO
inactive: A498 > 100 µM | A549 > 100 µM | BT-549 > 100 µM | CCRF-CEM > 100 µM | COLO 205 > 100 µM | DU-145 > 100 µM | HCC 2998 > 100 µM | HCT-116 > 100 µM | KM12 > 100 µM | MCF7 > 100 µM | MDA-MB-231 > 100 µM | NCI-H23 > 100 µM | OVCAR-5 > 100 µM | PC-3 > 100 µM | SNB-19 > 100 µM | SR 80.9 µM | T47D > 100 µM | UACC-257 > 100 µM

CC(=O)N1C(Nc2cccc3nc(C)ccc23)CCN1c1ccccc1 (stereo not drawn)
inactive: A549 > 10 µM | BT-549 > 10 µM | CCRF-CEM > 10 µM | COLO 205 > 10 µM | DU-145 > 10 µM | HCC 2998 > 10 µM | HCT-116 > 10 µM | MCF7 > 10 µM | MDA-MB-231 > 10 µM | NCI-H23 > 10 µM | OVCAR-5 > 10 µM | PC-3 > 10 µM | SNB-19 > 10 µM | SR 7.19 µM | T47D > 10 µM | UACC-257 > 10 µM

CNC(=S)N/N=C(\C)c1cc(OC)c(OC)cc1O
inactive: A498 > 100 µM | A549 > 100 µM | BT-549 > 100 µM | CCRF-CEM > 100 µM | COLO 205 > 100 µM | DU-145 > 100 µM | HCC 2998 > 100 µM | HCT-116 > 100 µM | KM12 > 100 µM | MCF7 > 100 µM | MDA-MB-231 > 100 µM | OVCAR-5 > 100 µM | PC-3 > 100 µM | SNB-19 > 100 µM | SR > 100 µM | T47D > 100 µM | UACC-257 > 100 µM

Cc1cn(C2CC(O)C(Cn3nncc3Cn3ccc(=O)[nH]c3=O)O2)c(=O)[nH]c1=O (stereo not drawn)
inactive: A498 > 100 µM | A549 > 100 µM | BT-549 > 100 µM | CCRF-CEM > 100 µM | COLO 205 > 100 µM | DU-145 > 100 µM | HCC 2998 > 100 µM | HCT-116 > 100 µM | KM12 > 100 µM | MCF7 > 100 µM | MDA-MB-231 > 100 µM | NCI-H23 > 100 µM | OVCAR-5 > 100 µM | PC-3 > 100 µM | SNB-19 > 100 µM | SR > 100 µM | T47D > 100 µM | UACC-257 > 100 µM

CC(C)CCCC(C)[C@H]1CCC2[C@@H]3CCC4Cc5nc6c(nc5C[C@]4(C)C3CC[C@@]21C)CC1CC[C@@H]2C(CC[C@@]3(C)C2CC[C@@H]3C(C)CCCC(C)C)[C@@]1(C)C6 (stereo partly drawn)
inactive: A498 > 100 µM | A549 > 100 µM | BT-549 > 100 µM | CCRF-CEM > 100 µM | COLO 205 > 100 µM | DU-145 > 100 µM | HCT-116 > 100 µM | KM12 > 100 µM | MCF7 > 100 µM | MDA-MB-231 > 100 µM | NCI-H23 > 100 µM | OVCAR-5 > 100 µM | PC-3 > 100 µM | SNB-19 > 100 µM | SR > 100 µM | T47D > 100 µM | UACC-257 > 100 µM

CC(C)[C@@H]1ON1C(C)c1ccccc1 (stereo partly drawn)
inactive: A498 > 100 µM | A549 > 100 µM | BT-549 > 100 µM | CCRF-CEM > 100 µM | COLO 205 > 100 µM | DU-145 > 100 µM | HCC 2998 > 100 µM | HCT-116 > 100 µM | KM12 > 100 µM | MCF7 13.7 µM | MDA-MB-231 > 100 µM | NCI-H23 > 100 µM | OVCAR-5 > 100 µM | PC-3 > 100 µM | SNB-19 > 100 µM | SR > 100 µM | T47D > 100 µM | UACC-257 > 100 µM

CN1C(=O)c2ccccc2OC12C=Cc1ccc(O)cc1O2 (stereo not drawn)
inactive: A498 18.4 µM | A549 30.8 µM | BT-549 30.8 µM | CCRF-CEM 19.3 µM | COLO 205 22.2 µM | DU-145 22.6 µM | HCC 2998 18.9 µM | HCT-116 25.8 µM | KM12 25.2 µM | MCF7 32.4 µM | MDA-MB-231 18.5 µM | NCI-H23 28.2 µM | OVCAR-5 20.7 µM | PC-3 21.3 µM | SNB-19 20.4 µM | T47D 13.8 µM | UACC-257 15.6 µM
active: SR < 0.01 µM

C=CCN1CN(C2CCCCC2)CSC1=S
inactive: A498 14.3 µM | A549 16.5 µM | BT-549 7.69 µM | COLO 205 3.32 µM | DU-145 2.23 µM | HCC 2998 8.17 µM | HCT-116 1.55 µM | KM12 3.19 µM | MCF7 1.26 µM | MDA-MB-231 15.5 µM | NCI-H23 8.28 µM | OVCAR-5 9.08 µM | PC-3 5.02 µM | SNB-19 16.9 µM | UACC-257 3.68 µM
active: CCRF-CEM 0.818 µM | SR 0.148 µM | T47D 0.883 µM

CC1CC(C)CN(S(=O)(=O)c2cc(Cl)c(Oc3ccc([N+](=O)[O-])cc3Cl)c(Cl)c2)C1 (stereo not drawn)
inactive: A498 > 100 µM | A549 > 100 µM | BT-549 > 100 µM | COLO 205 > 100 µM | DU-145 > 100 µM | HCC 2998 > 100 µM | HCT-116 > 100 µM | KM12 > 100 µM | MCF7 > 100 µM | MDA-MB-231 > 100 µM | NCI-H23 > 100 µM | OVCAR-5 > 100 µM | PC-3 > 100 µM | SNB-19 > 100 µM | SR > 100 µM | T47D > 100 µM | UACC-257 > 100 µM

CCCCc1ccc(-n2sc3ncc([N+](=O)[O-])cc3c2=O)cc1
inactive: A549 12.9 µM | BT-549 17.2 µM | CCRF-CEM 7.24 µM | COLO 205 18.4 µM | DU-145 23.3 µM | HCC 2998 12.5 µM | HCT-116 8.57 µM | KM12 12 µM | MCF7 16 µM | MDA-MB-231 11.4 µM | NCI-H23 11.2 µM | OVCAR-5 13.4 µM | PC-3 5.55 µM | SNB-19 13.7 µM | SR 16 µM | T47D 10.1 µM | UACC-257 16.6 µM

N#Cc1nc(-c2ccco2)oc1N
inactive: A549 > 10 µM | BT-549 > 10 µM | CCRF-CEM > 10 µM | COLO 205 > 10 µM | DU-145 > 10 µM | HCC 2998 > 10 µM | HCT-116 > 10 µM | KM12 > 10 µM | MCF7 > 10 µM | MDA-MB-231 > 10 µM | NCI-H23 > 10 µM | OVCAR-5 > 10 µM | PC-3 > 10 µM | SNB-19 > 10 µM | SR > 10 µM | T47D > 10 µM | UACC-257 > 10 µM

Oc1ccc(-c2nc(-c3ccc4ccccc4n3)c(-c3ccc(F)cc3)[nH]2)cc1
inactive: A549 11.6 µM | BT-549 17.7 µM | CCRF-CEM 15.1 µM | COLO 205 14.6 µM | DU-145 15.5 µM | HCC 2998 3.94 µM | HCT-116 12.9 µM | KM12 5.26 µM | MCF7 4.61 µM | MDA-MB-231 18.5 µM | NCI-H23 12.5 µM | OVCAR-5 15.9 µM | PC-3 9.08 µM | SNB-19 17.3 µM | SR 6.25 µM | T47D 7.11 µM | UACC-257 13.5 µM

Nc1nc2c(ncn2Cc2ccc(CO)cc2)c(=O)[nH]1
inactive: A498 > 100 µM | A549 > 100 µM | BT-549 > 100 µM | CCRF-CEM > 100 µM | COLO 205 > 100 µM | DU-145 > 100 µM | HCT-116 > 100 µM | KM12 > 100 µM | MCF7 > 100 µM | MDA-MB-231 > 100 µM | NCI-H23 > 100 µM | OVCAR-5 > 100 µM | PC-3 > 100 µM | SNB-19 > 100 µM | SR 95.5 µM | T47D > 100 µM | UACC-257 > 100 µM
